# Like-named read-outs stand apart in the source and are kept apart here.
# Key:
# [1] = system: Pseudomonas aeruginosa ATCC 9027; test: Antibacterial assay, micro broth dilution; type: cell-based; conditions: ATCC9027, micro broth dilution, LB medium, 24 hours at 37 °C, read-out: Antibacterial Activity (MIC) P. aeruginosa
# Method: (§1) The micro broth dilution method was used to evaluate the antibacterial activities of compounds 1–19 against the growth of eight common pathogens: Bacillus subtilis BS01, Micrococcus luteus, Escherichia coli ATCC 25922, Staphylococcus aureus ATCC 6538, S. aureus MRSA, Streptococcus agalactiae ATCC 13813, S. iniae, and Pseudomonas aeruginosa ATCC 9027 in 96-well polystyrene plates. Vancomycin and ciprofloxacin were used as positive controls. Briefly, wells containing 100 μL bacteria dilutions (OD600 = 0.01) in Luria–Bertani (LB) medium were supplemented with different concentrations of 1–19 (80, 40, 20, 10, 5, 2.5, 1.25, and 0.625 μg/mL), vancomycin, and ciprofloxacin (40, 20, 10, 5, 2.5, 1.25, 0.625, and 0.3125 μg/mL), respectively. The MICs were determined after 24 hours’ incubation at 37 °C with the tested compounds.
# Bacillus subtilis BS01 = test: Antibacterial assay, micro broth dilution; type: cell-based; conditions: BS01, micro broth dilution, LB medium, 24 hours at 37 °C, read-out: Antibacterial Activity (MIC) B. subtilis
# Method: as §1
# S. iniae = test: Antibacterial assay, micro broth dilution; type: cell-based; conditions: Streptococcus iniae; micro broth dilution, LB medium, 24 hours at 37 °C; read-out: Antibacterial Activity (MIC) S. iniae
# Method: as §1
# [2] = system: Staphylococcus aureus ATCC 6538; test: Antibacterial assay, micro broth dilution; type: cell-based; conditions: ATCC6538, micro broth dilution, LB medium, 24 hours at 37 °C, read-out: Antibacterial Activity (MIC) S. aureus
# Method: as §1
# [3] = system: Streptococcus agalactiae ATCC 13813; test: Antibacterial assay, micro broth dilution; type: cell-based; conditions: ATCC13813, micro broth dilution, LB medium, 24 hours at 37 °C, read-out: Antibacterial Activity (MIC) S. agalactiae
# Method: as §1
# [4] = system: Escherichia coli ATCC 25922; test: Antibacterial assay, micro broth dilution; type: cell-based; conditions: ATCC25922, micro broth dilution, LB medium, 24 hours at 37 °C, read-out: Antibacterial Activity (MIC) E. coli
# Method: as §1
# S. aureus MRSA = test: Antibacterial assay, micro broth dilution; type: cell-based; conditions: Staphylococcus aureus, read-out: Antibacterial Activity (MIC) MRSA
# Method: as §1
# Micrococcus luteus = test: Antibacterial assay, micro broth dilution; type: cell-based; conditions: read-out: Antibacterial Activity (MIC) M. luteus
# Method: as §1
# brine shrimps = test: Brine shrimp lethality bioassay; type: in vivo; conditions: Table 3
# Excerpt: The methods were the same as those used in our previous studies.
# [5] = Cytotoxicity, CCK-8 method; type: cell-based; conditions: human
# Method: (§2) Cytotoxic activity was evaluated using the human lung adenocarcinoma cell line H1975 and human hepatocellular carcinoma cell line HepG-2, using the CCK-8 method as described in our previous study. Briefly, each of the test compounds was dissolved in DMSO and further diluted to give final concentrations of 80, 40, 20, 10, 5, 2.5, and 1.25 μM, respectively. H1975 cells or HepG-2 cells (5 × 10^3 […]) were seeded in 96-well plates and treated with compounds at the indicated concentration for 24 hours and then 10 μL CCK-8 reagent was added to each well. The plates were incubated at 37 °C for another 4 hours. Finally, the optical density was measured at a wavelength of 450 nm with a Bio-Rad microplate reader. Dose–response curves were generated, and the IC50 values were calculated from the linear portion of log dose–response curves.
# [6] = Cytotoxicity, CCK-8 method; type: cell-based; conditions: human; remark: listed apart in the source
# Method: as §2
# [7] = micro broth dilution, LB medium, 24 hours at 37 °C
# [8] = H1975 cells (lung adenocarcinoma cell line), H1975 cells, CCK-8, 24 hours treatment, read-out: Cytotoxicity (IC50) against H1975
# [9] = HepG-2 cells (hepatocellular carcinoma cell line), HepG-2 cells, CCK-8, 24 hours treatment, read-out: Cytotoxicity (IC50) against HepG-2
SMILES,MIC [1] [µg/mL],MIC (Bacillus subtilis BS01) [µg/mL],MIC (S. iniae) [µg/mL],MIC [2] [µg/mL],MIC [3] [µg/mL],MIC [4] [µg/mL],MIC (S. aureus MRSA; [7]) [µg/mL],MIC (Micrococcus luteus; [7]) [µg/mL],Toxicity (TC50) Brine Shrimp (brine shrimps) [µg/mL],IC50 at 24 h [5] [µM],IC50 at 24 h [6] [µM],"IC50 at 24 h [5, 8] [µM]","IC50 at 24 h [6, 9] [µM]",MIC (S. aureus MRSA; 24 h) [µg/mL],MIC (Micrococcus luteus; 24 h) [µg/mL]
"O=C(O)c1cn(C2CC2)c2cc(N3CCNCC3)c(F)cc2c1=O [CFN, Ciprofloxacin, reference compound]",0.6,0.6,2.5,0.6,5,0.6,,,,,,,,,
"O=C1N2C3OC=CC4SC2(CC3C4O)C(=O)NC12Cc1ccccc1O2 (centres unmarked) [Compound 1, Lecanicillium A]",> 80,60,> 80,> 80,> 80,> 80,> 80,> 80,>80,,,,,,
"CSC12CC3=COC=CC(O)C3N1C(=O)C1(Cc3ccccc3O1)NC2=O (centres unmarked) [Compound 2, Lecanicillium B]",> 80,80,70,> 80,> 80,> 80,> 80,60,>80,> 80,> 80,,,,
"CSC12CC3=COC=CC(OC(C)=O)C3N1C(=O)C1(SC)CC34OC3C3OC3C(OC(C)=O)C4N1C2=O (centres unmarked) [Compound 3, Lecanicillium C]",> 80,> 80,> 80,> 80,> 80,> 80,> 80,> 80,>80,> 80,> 80,,,,
"CSC12CC3=COC=CC(OC(C)=O)C3N1C(=O)C1(SC)CC3(O)C=CC(=O)C(OC(C)=O)C3N1C2=O (centres unmarked) [Compound 4, Lecanicillium D]",> 80,50,40,> 80,> 80,> 80,> 80,> 80,80,71.5,> 80,,,,
"CS[C@@]1(Cc2ccccc2)NC(=O)[C@H](Cc2ccccc2)NC1=O [Compound 6, Lecanicillium F]",> 80,> 80,> 80,> 80,> 80,> 80,> 80,> 80,,,,> 80,> 80,,
"CS[C@@]1(Cc2ccccc2)NC(=O)[C@@](Cc2ccccc2)(SC)NC1=O [Compound 7, emethacin B]",> 80,> 80,> 80,> 80,> 80,> 80,> 80,> 80,,,,16.9,> 80,,
"CS[C@@]12CC3=COC=C[C@H](OC(C)=O)[C@H]3N1C(=O)[C@]1(SC)CC3=COC=C[C@H](OC(C)=O)[C@H]3N1C2=O [Compound 8, bisdethiobis(methylsulfanyl)acetylaranotin]",> 80,> 80,> 80,> 80,> 80,> 80,> 80,> 80,,> 80,> 80,,,,
"CS[C@@]12CC3=COC=C[C@H](O)[C@H]3N1C(=O)[C@]1(SC)CC3=COC=C[C@H](O)[C@H]3N1C2=O [Compound 9, bisdethiobis(methylsulfanyl)deacetylaranotin]",> 80,> 80,> 80,> 80,> 80,> 80,> 80,> 80,>80,> 80,> 80,,,,
"CS[C@@]12CC3=COC=C[C@H](OC(C)=O)[C@H]3N1C(=O)[C@]1(SC)CC3=COC=C[C@H](O)[C@H]3N1C2=O [Compound 10, bisdethiobis(methylsulfanyl)-aranotin]",> 80,> 80,> 80,> 80,> 80,> 80,> 80,> 80,>80,> 80,> 80,,,,
"CS[C@@]12CC3=CC=C[C@H](OC(C)=O)[C@H]3N1C(=O)[C@]1(SC)CC3=COC=C[C@H](O)[C@H]3N1C2=O [Compound 11, 8-acetyl-bisdethiobis(methylsulfanyl)apoaranotin]",> 80,60,50,> 80,> 80,> 80,> 80,> 80,>80,69.3,> 80,,,,
"CS[C@@]12CC3=CC=C[C@H](OC(C)=O)[C@H]3N1C(=O)[C@]1(SC)CC3=COC=C[C@H](OC(C)=O)[C@H]3N1C2=O [Compound 12, bisdethiobis(methylsulfanyl)acetylapoaranotin]",> 80,> 80,> 80,> 80,50,> 80,> 80,50,50,> 80,> 80,,,,
"CS[C@@]12CC3=COC=C[C@H](OC(C)=O)[C@H]3N1C(=O)[C@]1(SC)CC3=CC=C[C@H](O)[C@H]3N1C2=O [Compound 13, bisdethiobis(methylsulfanyl)apoaranotin]",> 80,> 80,> 80,> 80,> 80,> 80,> 80,> 80,,> 80,> 80,,,,
"CS[C@@]12Cc3ccccc3N1C(=O)[C@]1(SC)CC3=COC=C[C@H](OC(C)=O)C3N1C2=O (some centres unmarked) [Compound 16, versicolor A]",> 80,70,> 80,> 80,70,> 80,> 80,> 80,,7.2,> 80,,,,
"CS[C@@]12Cc3ccccc3N1C(=O)[C@]1(SC)CC3=COC=C[C@H](O)C3N1C2=O (some centres unmarked) [Compound 17, 12,12a-anhydro-desacetyl-bis-dethio-7a, 14a-di-(methylmercapto)-apoaranotin]",> 80,80,30,> 80,70,> 80,> 80,> 80,,35.2,> 80,,,,
"CS[C@@H]1NC(=O)[C@@](Cc2ccccc2)(SC)NC1=O [Compound 19, citriperazine B]",> 80,80,> 80,> 80,> 80,> 80,> 80,70,,,,> 80,> 80,,
"CN[C@H](CC(C)C)C(=O)N[C@H]1C(=O)N[C@@H](CC(N)=O)C(=O)N[C@H]2C(=O)N[C@H]3C(=O)N[C@H](C(=O)N[C@H](C(=O)O)c4cc(O)cc(O)c4-c4cc3ccc4O)[C@H](O)c3ccc(c(Cl)c3)Oc3cc2cc(c3O[C@@H]2O[C@H](CO)[C@@H](O)[C@H](O)[C@H]2O[C@H]2C[C@](C)(N)[C@H](O)[C@H](C)O2)Oc2ccc(cc2Cl)[C@H]1O [VMN, Vancomycin, reference compound]",,,,,,,,,,,,,,2.5,0.6
